In US20220370416A1, “COMPOUNDS AND METHODS FOR TARGETED DEGRADATION OF KRAS” (Arvinas Operations, Inc., priority 2020, published 2022):

Tests used:
[1] = target: T1, HiBit-KRAS^G12C (Homo sapiens, UniProt P01116, G12C); test: HiBit degradation assay in MiaPaCa-2 HiBit-KRas^G12C cells; type: cell-based; settings: 24 hours; for Dmax: MIA PaCa-2, MiaPaCa-2 HiBit-KRas^G12C cells
How it was run: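 DC50 and Dmax come from 4-parameter fits of DMSO-normalized HiBit luminescence after 24 hours' exposure at 37° C to 10 μM–20 nM compound in 0.1% or 0.5% DMSO. Cells: MiaPaCa-2 carrying one endogenously HiBit-tagged KRAS^G12C allele; concentrations causing ≥50% […] viability loss (alamar blue) excluded.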

[2] = target: T1, HiBit-KRAS^G12C; test: HiBit degradation assay in SW1573 HiBit-KRas^G12C cells; type: cell-based; parameters: expressed in transfected cells; host or cells: SW1573 (clone E6), modified pcDNA3.1 vector, TK promoter; settings: 24 hours; for Dmax: SW1573, SW1573 HiBit-KRas^G12C
How it was run: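 HiBit-KRAS G12C degradation was measured after a 24 h compound exposure (titrated 10 μM–20 nM) in engineered SW1573 cells. Lytic HiBit luminescence, expressed relative to DMSO controls, yielded DC50 and Dmax from 4-parameter fits. Concentrations causing ≥50% loss in alamar blue viability were omitted as cytotoxic.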

[3] = 0.1% DMSO, read-out: KRas^G12C-HiBit (SW1573; 0.1% DMSO) Dmax**
[4] = SW1573 HiBit-KRas^G12C, 0.1% DMSO, read-out: KRas^G12C-HIBit (SW1573; 0.1% DMSO) DC50*
[5] = MiaPaCa-2 HiBit-KRas^G12C cells, 0.5% DMSO, maximum degradation
[6] = 0.5% DMSO, maximum degradation, read-out: KRas^G12C-HiBiT (MiaPaCa; 0.5% DMSO) DMax
[7] = read-out: KRas^G12C-HiBiT (MiaPaCa; 0.5% DMSO) IC50, MiaPaCa-2 HiBit-KRas^G12C cells, 0.5% DMSO
[8] = read-out: KRas^G12C-HiBiT (SW1573; 0.5% DMSO) IC50***, SW1573 HiBit-KRas^G12C, 0.5% DMSO
[9] = 0.5% DMSO, read-out: KRas^G12C-HiBiT (SW1573; 0.5% DMSO) Dmax**
[10] = SW1573 HiBit-KRas^G12C, 0.5% DMSO

T1 sequence (P01116 1-186 isoform P01116-2 G12C limits assumed): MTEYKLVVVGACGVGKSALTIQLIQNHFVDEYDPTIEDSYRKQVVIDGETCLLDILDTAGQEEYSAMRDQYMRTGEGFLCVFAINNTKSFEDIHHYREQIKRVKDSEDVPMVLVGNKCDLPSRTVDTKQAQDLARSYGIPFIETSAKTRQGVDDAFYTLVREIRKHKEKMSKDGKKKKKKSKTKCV

Row | DC50 [2, 4] [nM] | KRas^G12C-HiBiT (MiaPaCa; 0.5% DMSO) DMax [1, 5] | Dmax [1, 6] [%] | DC50 [1, 7] [nM] | DC50 [2, 8] [nM] | SMILES | also measured
1 | 100 to 1000 |  |  |  |  | C=CC(=O)N1CCN(c2nc(O[C@H](C)CN3CCC(OCCOCCOCCOc4cc(-c5scnc5C)ccc4CNC(=O)[C@@H]4C[C@@H](O)CN4C(=O)[C@H](c4cc(C)no4)C(C)C)CC3)nc3c(F)c(-c4cc(O)cc5ccccc45)c(Cl)cc23)CC1 [Compound 69, (2S,4R)-N-{[2-(2-{2-[2-({1-[(2R)-2-{[6-chloro-8-fluoro-7-(3-hydroxynaphthalen-1-yl)-4-[4-(prop-2-enoyl)piperazin-1-yl]quinazolin-2-yl]oxy}propyl]piperidin-4-yl}oxy)ethoxy]ethoxy}ethoxy)-4-(4-methyl-1,3-thiazol-5-yl)phenyl]methyl}-4-hydroxy-1-[(2S)-3-methyl-2-(3-methyl-1,2-oxazol-5-yl)butanoyl]pyrrolidine-2-carboxamide] | DC50 ([1]; read-out: KRas^G12C-HiBiT (MiaPaCa; 0.1% DMSO) IC50, MiaPaCa-2 HiBit-KRas^G12C cells, 0.1% DMSO): > 1000 nM; Dmax [2, 3]: 35 to 70%
2 |  |  | 35 to 70 | > 1000 | > 1000 | C=CC(=O)N1CCN(c2nc(OCCN3CCC(COc4cc([C@H](C(=O)N5C[C@H](O)C[C@H]5C(=O)N[C@@H](C)c5ccc(-c6scnc6C)cc5)C(C)C)on4)CC3)nc3c(F)c(-c4cc(O)cc5ccccc45)c(Cl)cc23)CC1 (atropisomer, axis not shown) [Compound 146, (2S,4R)-1-[(2R)-2-(3-{[1-(2-{[6-chloro-8-fluoro-7-(3-hydroxynaphthalen-1-yl)-4-[4-(prop-2-enoyl)piperazin-1-yl]quinazolin-2-yl]oxy}ethyl)piperidin-4-yl]methoxy}-1,2-oxazol-5-yl)-3-methylbutanoyl]-4-hydroxy-N-[(1S)-1-[4-(4-methyl-1,3-thiazol-5-yl)phenyl]ethyl]pyrrolidine-2-carboxamide] | 
3 | 100 to 1000 |  | 35 to 70 |  |  | C=CC(=O)N1CCN(c2nc(O[C@H](C)CN3CCC(OCCOCC(=O)N[C@H](C(=O)N4C[C@H](O)C[C@H]4C(=O)N[C@@H](C)c4ccc(-c5scnc5C)cc4)C(C)(C)C)CC3)nc3c(F)c(-c4cc(O)cc5ccccc45)c(Cl)cc23)CC1 (atropisomer, axis not shown) [Compound 86, (2S,4R)-1-[(2S)-2-{2-[2-({1-[(2R)-2-{[6-chloro-8-fluoro-7-(3-hydroxynaphthalen-1-yl)-4-[4-(prop-2-enoyl)piperazin-1-yl]quinazolin-2-yl]oxy}propyl]piperidin-4-yl}oxy)ethoxy]acetamido}-3,3-dimethylbutanoyl]-4-hydroxy-N-[(1S)-1-[4-(4-methyl-1,3-thiazol-5-yl)phenyl]ethyl]pyrrolidine-2-carboxamide] | Dmax ([1]; 0.1% DMSO, maximum degradation, read-out: KRas^G12C-HiBiT (MiaPaCa; 0.1% DMSO) DMax): 35 to 70%; Dmax [2, 3]: 35 to 70%; Dmax [2, 9]: 35 to 70%
4 |  |  | 35 to 70 | > 1000 | 100 to 1000 | Cc1ncsc1-c1ccc([C@H](C)NC(=O)[C@@H]2C[C@@H](O)CN2C(=O)[C@@H](NC(=O)COCC2CCN(CCOc3nc(N4CCN(C(=O)/C=C/CN(C)C)[C@@H](CC#N)C4)c4cc(Cl)c(-c5cc(O)cc6ccccc56)c(F)c4n3)CC2)C(C)(C)C)cc1 [Compound 165, (2S,4R)-1-[(2S)-2-[2-({1-[2-({6-chloro-4-[(3S)-3-(cyanomethyl)-4-[(2E)-4-(dimethylamino)but-2-enoyl]piperazin-1-yl]-8-fluoro-7-(3-hydroxynaphthalen-1-yl)quinazolin-2-yl}oxy)ethyl]piperidin-4-yl}methoxy)acetamido]-3,3-dimethylbutanoyl]-4-hydroxy-N-[(1S)-1-[4-(4-methyl-1,3-thiazol-5-yl)phenyl]ethyl]pyrrolidine-2-carboxamide] | Dmax [2, 9]: 35 to 70%
5 |  | C (C ≤ 35) |  |  |  | C=CC(=O)N1CCN(c2nc(OCCN3CCC(COCC(=O)N[C@H](C(=O)N4C[C@H](O)C[C@H]4C(=O)N[C@@H](C)c4ccc(-c5scnc5C)cc4)C(C)(C)C)CC3)nc3c(F)c(-c4cc(O)cc5ccccc45)c(Cl)cc23)C[C@@H]1CC#N (atropisomer, axis not shown) [Compound 110, (2S,4R)-1-[(2S)-2-[2-({1-[2-({6-chloro-4-[(3S)-3-(cyanomethyl)-4-(prop-2-enoyl)piperazin-1-yl]-8-fluoro-7-(3-hydroxynaphthalen-1-yl)quinazolin-2-yl}oxy)ethyl]piperidin-4-yl}methoxy)acetamido]-3,3-dimethylbutanoyl]-4-hydroxy-N-[(1S)-1-[4-(4-methyl-1,3-thiazol-5-yl)phenyl]ethyl]pyrrolidine-2-carboxamide] | KRas^G12C-HiBiT (SW1573; 0.5% DMSO) Dmax** [2, 10]: C (C ≤ 35)
6 |  |  | < 35 | 100 to 1000 | > 1000 | C=CC(=O)N1CCN(c2nc(OCCN3CCC(COc4cc([C@H](C(=O)N5C[C@H](O)C[C@H]5C(=O)N[C@@H](C)c5ccc(C#N)cc5)C(C)C)on4)CC3)nc3c(F)c(-c4cc(O)cc5ccccc45)c(Cl)cc23)C[C@@H]1CC#N [Compound 160, (2S,4R)-1-[(2R)-2-[3-({1-[2-({6-chloro-4-[(3S)-3-(cyanomethyl)-4-(prop-2-enoyl)piperazin-1-yl]-8-fluoro-7-(3-hydroxynaphthalen-1-yl)quinazolin-2-yl}oxy)ethyl]piperidin-4-yl}methoxy)-1,2-oxazol-5-yl]-3-methylbutanoyl]-N-[(1S)-1-(4-cyanophenyl)ethyl]-4-hydroxypyrrolidine-2-carboxamide] | 
7 |  | C (C ≤ 35) |  | 100 to 1000 | 100 to 1000 | C=CC(=O)N1CCN(c2nc(OCCN3CCC(COc4cc([C@H](C(=O)N5C[C@H](O)C[C@H]5C(=O)N[C@@H](C)c5ccc(-c6scnc6C)cc5)C(C)C)on4)CC3)nc3c(F)c(-c4cc(O)cc5ccccc45)c(Cl)cc23)C[C@@H]1CC#N (atropisomer, axis not shown) [Compound 104, (2S,4R)-1-[(2R)-2-[3-({1-[2-({6-chloro-4-[(3S)-3-(cyanomethyl)-4-(prop-2-enoyl)piperazin-1-yl]-8-fluoro-7-(3-hydroxynaphthalen-1-yl)quinazolin-2-yl}oxy)ethyl]piperidin-4-yl}methoxy)-1,2-oxazol-5-yl]-3-methylbutanoyl]-4-hydroxy-N-[(1S)-1-[4-(4-methyl-1,3-thiazol-5-yl)phenyl]ethyl]pyrrolidine-2-carboxamide] | KRas^G12C-HiBiT (SW1573; 0.5% DMSO) Dmax** [2, 10]: C (C ≤ 35)
8 |  |  |  | > 1000 | > 1000 | C=CC(=O)N1CCN(c2nc(OCCN3CCC4(CC3)CN(c3cc([C@@H](C(=O)N5C[C@H](O)C[C@H]5C(=O)N[C@@H](C)c5ccc(-c6ccnn6C)cc5)C(C)C)on3)C4)nc3c(F)c(-c4cc(O)cc5ccccc45)c(Cl)cc23)C[C@@H]1CC#N (atropisomer, axis not shown) [Compound 101, (2S,4R)-1-[(2S)-2-(3-{7-[2-({6-chloro-4-[(3S)-3-(cyanomethyl)-4-(prop-2-enoyl)piperazin-1-yl]-8-fluoro-7-(3-hydroxynaphthalen-1-yl)quinazolin-2-yl}oxy)ethyl]-2,7-diazaspiro[3.5]nonan-2-yl}-1,2-oxazol-5-yl)-3-methylbutanoyl]-4-hydroxy-N-[(1S)-1-[4-(1-methyl-1H-pyrazol-5-yl)phenyl]ethyl]pyrrolidine-2-carboxamide] | 

Row | SMILES | DC50 [2, 4] [nM] | KRas^G12C-HiBiT (MiaPaCa; 0.5% DMSO) DMax [1, 5] | Dmax [1, 6] [%] | DC50 [1, 7] [nM] | DC50 [2, 8] [nM] | also measured
9 | C=CC(=O)N1CCN(c2nc(OCCN3CCC(OCCOc4cc([C@H](C(=O)N5C[C@H](O)C[C@H]5C(=O)N[C@@H](C)c5ccc(-c6scnc6C)cc5)C(C)C)on4)CC3)nc3c(F)c(-c4cc(O)cc5ccccc45)c(Cl)cc23)C[C@@H]1CC#N (atropisomer, axis not shown) [Compound 4, (2S,4R)-1-((R)-2-(3-(2-((1-(2-(((R)-4-((S)-4-acryloyl-3-(cyanomethyl)piperazin-1-yl)-6-chloro-8-fluoro-7-(3-hydroxynaphthalen-1-yl)quinazolin-2-yl)oxy)ethyl)piperidin-4-yl)oxy)ethoxy)isoxazol-5-yl)-3-methylbutanoyl)-4-hydroxy-N-((S)-1-(4-(4-methylthiazol-5-yl)phenyl)ethyl)pyrrolidine-2-carboxamide] | 100 to 1000 | B (35 < B < 70) |  |  |  | KRas^G12C-HiBiT (MiaPaCa; 0.1% DMSO) DMax ([1]; MiaPaCa-2 HiBit-KRas^G12C cells, 0.1% DMSO, maximum degradation): C (C ≤ 35); KRas^G12C-HiBit (SW1573; 0.1% DMSO) Dmax** ([2]; SW1573 HiBit-KRas^G12C, 0.1% DMSO): B (35 < B < 70)
